Reference: patent publication US11980620B2, “Compounds and methods for treatment of Diamond Blackfan anemia” (THE CHILDREN'S MEDICAL CENTER CORPORATION, priority 2017, dated 2024)

Assays:
DBA CD34-5F cells = experiment: Erythroid differentiation (CD71+GlyA+) of CD34-5F cells from DBA iPSCs; assay type: cell-based, human
Experimental: (§1) (FIG. 8A) The distribution of 1440 compounds by Z-score in a proliferation-based screen of the Sigma LOPAC chemical library. DBA CD34-5F cells were plated in erythroid-promoting conditions in 384-well format. Erythroid proliferation was measured in the presence of 5 μM of each compound, and converted into Z-scores. The screen was carried out with 3 RPS19 DBA and 2 normal iPSC lines. (FIG. 88) Dose-dependent effect of SMER28 (in μM) on erythroid differentiation, shown as the absolute number of erythroid cells in each drug-treated condition normalized to vehicle (DMSO) control. Erythroid cells were analyzed on day 9 of differentiation using markers CD71 and GlyA. Dose curve was performed with DBA (n=5) and control (n=3) iPSCs. Non-linear regression curve was plotted to calculate EC50 values. (FIGS. 8C and 8D) Dose-dependent effect of SMER28 (in μM) on erythroid differentiation of CB CD34^+ RPS19^+ cells. (FIG. 8C) Absolute number of erythroid cells (analyzed on day 9) in each drug-treated condition normalized to vehicle (DMSO) control (4 independent experiments). Non-linear regression curve was plotted to calculate EC50 values. (FIG. 8D) Representative flow plots of control (shLUC) and RPS19th cells treated with DMSO or increasing doses of SMER28.
(FIG. 12A) Erythroid differentiation of control and DBA CD34-5F cells treated with DMSO vehicle or SMER28 (10 μM) during the initial CD34^+ progenitor phase (day 0-4 of differentiation), or stage I of erythroid culture (day 4-9 of differentiation). Percent of erythroid cells after stage I of differentiation is indicated in top left for each condition, and quantitated in (FIG. 12B). Data are shown as mean f s.e.m. of 4 independent experiments, with 2 control and 4 DBA iPSCs. (FIG. 12C) Same as (FIG. 12A) for CB CD34+ cells transduced with shRPS19 hairpins. GFP^+ RPS19^sh and GFP^− control cells were quantitated separately. […] (FIG. 12D) RBC pellets at the end of stage III initiated with equal numbers of CD34-5F or CB progenitors. SMER28 was added at […]. (FIG. 12E) May-Grunwald-Giemsa stain of erythroid cells from CB CD34^+ at end of stage III. Arrows indicate enucleated RBCs, which are quantitated by flow cytometry. (FIG. 12F) Quantitation of the enucleation efficiency (left) of GLYA^+ cells. Data in FIGS. 12E-12F represents 3 independent experiments. For all panels, *p<0.05, **p<0.01.
Erythroid differentiation. Differentiation was performed essentially as described (Lee et al., 2015). CD34 expansion phase (4 days): To initiate differentiation CD34-5F cells were cultured in progenitor media without Dox. Stage I (5 days): Media were changed to: IMDM+1% BSA (Gibco), 20% FBS (Stem Cell Technologies), 1 mM L-glutamine, penicillin/streptomycin, 500 μg/ml h-transferrin (Sigma), 10 μg/ml human insulin (CellSciences), 1 μM β-estradiol, 1 μM Dex, 6U Epo (CellSciences), 100 μg/ml SCF, and 5 μg/ml IL-3. Cells were seeded at a density of <1×10^5 cells/ml in 24-well plates. Stage 11 (4 days). Media were changed to: IMDM+1% BSA, 20% FBS, 1 mM L-glutamine, penicillin/streptomycin, 500 μg/ml h-transferrin, 10 μg/ml human insulin, 6U Epo, and 50 μg/ml SCF. Cells were seeded at a density of <2×10^5 cells/ml in 24-well plates. Stage III (10 days) Media were changed to: IMDM+1% BSA, 20% FBS, 1 mM L-glutamine, penicillin/streptomycin, 500 μg/ml h-transferrin, 10 μg/ml human insulin, and 2U Epo. Cells were seeded at a density of <5×10^5 cells/ml in 24-well plates.
Drug treatments. […]

control iPSCs = experiment: Erythroid differentiation (CD71+GlyA+) of CD34-5F cells from control iPSCs; assay type: cell-based, human
Experimental: as §1, with “Dose curve was performed with DBA (n=5) and control (n=3) iPSCs. Non-linear regression curve was plotted to calculate EC50 values. (FIGS. 8C and 8D) Dose-dependent effect of SMER28 (in μM) on erythroid differentiation of CB CD34^+ RPS19^+ cells.” left out, “Non-linear regression curve was plotted to calculate EC50 values. (FIG. 8D) Representative flow plots of control (shLUC) and RPS19th cells treated with DMSO or increasing doses of SMER28.” left out
(FIG. 12A) Erythroid differentiation of control and DBA CD34-5F cells treated with DMSO vehicle or SMER28 (10 μM) during the initial CD34^+ progenitor phase (day 0-4 of differentiation), or stage I of erythroid culture (day 4-9 of differentiation). Percent of erythroid cells after stage I of differentiation is indicated in top left for each condition, and quantitated in (FIG. 12B). […] GFP^+ RPS19^sh and GFP^− control cells were quantitated separately. […] Arrows indicate enucleated RBCs, which are quantitated by flow cytometry. […]

p21 = p21 levels in CD34+ cells of DBA patient derived erythroid cell population; assay type: cell-based, human; details: 1.5 μM; in vitro
Source text: Accordingly, in another embodiment, an autophagy activator as disclosed herein can be administered to a subject according to the methods as disclosed herein in an effective dose to decrease the levels of p21 expression in CD34+ cells present in an erythroid cell population obtained from the subject by at least about 1%, at least about 2%, at least about 3%, at least about 5%, at least about 10%, at least about 15%, least about 20%, at least about 30%, at least about 40%, at least about 50%, at least about 60%, at least about 70%, at least about 80%, at least about 90%, at least about 95%, at least about 98%, at least about 99%, or more than 99%, as compared to in the absence of an autophagy activator.

A53T alpha-synuclein = details: PC-12 cells; independent of rapamycin treatment; cited from earlier work

C=CCNc1ncnc2ccc(Br)cc12 [SMER28, 6-Bromo-N-2-propenyl-4-quinazolinam]
output of GlyA+ cells (DBA CD34-5F cells; 10 μM, treated only during initial expansion phase (day 0-4), DBA progenitors): increased output
CD71+GlyA- pre-erythroblasts (DBA CD34-5F cells; 10 μM, treatment during stage I (day 4-9)): expanded
number of GlyA+ cells (DBA CD34-5F cells; 10 μM, treatment of erythroblasts during stage I (day 4-9)): did not significantly increase
effect on number of erythroid cells normalized to vehicle (DBA CD34-5F cells; DBA iPSCs): 9.8 fold
EC50 (DBA CD34-5F cells; Homo sapiens, iPSC, 216 h, RPS19+/- and RPL5 DBA iPSCs, day 9, normalized to DMSO, 95% confidence interval 0.63 to 2.37 μM, read-out: EC50, absolute number of CD71+GlyA+ erythroid cells): 1.5 µM
effect on number of erythroid cells normalized to vehicle (control iPSCs): 2.5 fold
EC50 (control iPSCs; Homo sapiens, iPSC, read-out: EC50, number of erythroid cells): 1.6 µM
levels of p21 in CD34+ cells (p21): decreased
A53T alpha-synuclein clearance (A53T alpha-synuclein): Enhances
